Measured values reported in patent US12653814B2, “Benzimidazolone-based cinnamamide derivative as TRPV1 antagonist and pharmaceutical composition for treatment or prevention of pain containing same as active ingredient” (JMACKEM CO., LTD, priority 2020, dated 2026).

Legend:
human TRPV1 (hTRPV1) [1] = biological target: T1, human TRPV1 (hTRPV1) (Homo sapiens, UniProt Q8NER1); assay: Ca2+ influx assay, antagonism against capsaicin in hTRPV1-HEK recombinant cells; format: cell-based; conditions: capsaicin 10 nM as activator, Fluo4-NW fluorescence, read-out: hTRPV1 IC50 [cap]
T1 construct: host or cells: HEK (PrecisION hTRPV1-HEK recombinant cell line)

human TRPV1 (hTRPV1) [2] = biological target: T1, human TRPV1 (hTRPV1); assay: Evaluation of human pH inhibitory activity in hTRPV1-HEK recombinant cells; format: cell-based; conditions: inhibition of activation at final pH 6.0, test substance 3 μM
Procedure: Evaluation of Human pH Inhibitory Activity
PrecisION™ hTRPV1-HEK recombinant cells (CYL3063) were purchased from Millipore and used. After culturing the above cells under the conditions of 37° C. and 5% CO2, the cells were inoculated in a 96-well plate at the density of 5×10^4 cells/well, followed by culture for 16 hours. Then, the medium was removed and 100 uL of a staining solution was put into each well, followed by culture for 30 minutes under the conditions of 37° C. and 5% CO2. After 30 minutes, all of the existing staining solution was removed and replaced with 100 uL of HBSS. Thereafter, the cells were acclimatized to room temperature for 15 minutes, and the test substances (example compounds and comparative example compounds of the present invention) were added to each well, followed by culture at room temperature for 15 minutes. Then, the final pH was adjusted to 6.0 using MES, and fluorescence was measured (ex485/em535). In the pH assay, the efficacy of the drug was evaluated using BCTC as a TRPV1 antagonist.

T1 sequence (Q8NER1 whole entry): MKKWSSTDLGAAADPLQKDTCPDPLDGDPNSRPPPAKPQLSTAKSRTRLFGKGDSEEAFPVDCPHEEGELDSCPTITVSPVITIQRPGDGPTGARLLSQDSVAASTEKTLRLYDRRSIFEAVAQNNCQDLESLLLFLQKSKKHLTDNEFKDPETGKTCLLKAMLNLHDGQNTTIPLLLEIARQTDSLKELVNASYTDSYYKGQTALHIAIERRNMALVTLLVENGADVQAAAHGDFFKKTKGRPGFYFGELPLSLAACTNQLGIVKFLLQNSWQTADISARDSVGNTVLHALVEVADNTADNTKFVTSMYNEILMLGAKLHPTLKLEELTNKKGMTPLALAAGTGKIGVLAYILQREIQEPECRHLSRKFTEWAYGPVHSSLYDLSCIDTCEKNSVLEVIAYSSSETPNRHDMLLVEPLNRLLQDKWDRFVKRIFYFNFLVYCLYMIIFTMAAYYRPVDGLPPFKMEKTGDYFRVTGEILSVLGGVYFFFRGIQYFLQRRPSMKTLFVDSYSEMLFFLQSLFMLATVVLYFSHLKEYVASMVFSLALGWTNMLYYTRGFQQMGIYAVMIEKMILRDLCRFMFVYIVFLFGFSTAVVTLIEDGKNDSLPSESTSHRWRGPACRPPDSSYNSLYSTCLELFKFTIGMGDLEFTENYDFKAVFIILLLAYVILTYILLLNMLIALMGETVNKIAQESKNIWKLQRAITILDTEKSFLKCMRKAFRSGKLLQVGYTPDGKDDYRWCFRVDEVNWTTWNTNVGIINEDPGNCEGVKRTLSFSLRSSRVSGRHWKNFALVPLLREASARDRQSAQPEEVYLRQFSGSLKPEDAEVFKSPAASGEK

O=C(/C=C/c1cc(C(F)(F)F)nn1-c1ccc(F)c(Cl)c1)Nc1cccc2[nH]c(=O)[nH]c12 [Example 49, (E)-3-(1-(3-chloro-4-fluorophenyl)-3-(trifluoromethyl)-1H-pyrazol-5-yl)-N-(2-oxo-2,3-dihydro-1H-benzo[d]imidazol-4-yl)acrylamide]
IC50 (human TRPV1 (hTRPV1) [1]): 19.9 nM
hTRPV1 pH (%, 3 μM) (human TRPV1 (hTRPV1) [2]): 21.37%

O=C(Nc1cccc2[nH]c(=O)[nH]c12)C1CC1c1cc(C2CC2)nn1-c1cccc(Cl)c1 (centres unmarked) [Example 66, 2-(1-(3-chlorophenyl)-3-cyclopropyl-1H-pyrazol-5-yl)-N-(2-oxo-2,3-dihydro-1H-benzo[d]imidazol-4-yl)cyclopropane-1-carboxamide]
IC50 (human TRPV1 (hTRPV1) [1]): > 160 nM

O=C(/C=C/c1ccc(C(F)(F)F)nc1OCC1CCC1)Nc1cccc2[nH]c(=O)[nH]c12 [Example 25, (E)-3-(2-(cyclobutylmethoxy)-6-(trifluoromethyl)pyridin-3-yl)-N-(2-oxo-2,3-dihydro-1H-benzo[d]imidazol-4-yl)acrylamide]
IC50 (human TRPV1 (hTRPV1) [1]): 34.1 nM
hTRPV1 pH (%, 3 μM) (human TRPV1 (hTRPV1) [2]): 89.76%

O=C(/C=C/c1ccc(C2CC2)cc1OCC1CC1)Nc1cccc2[nH]c(=O)[nH]c12 [Example 46, (E)-3-(4-cyclopropyl-2-(cyclopropylmethoxy)phenyl)-N-(2-oxo-2,3-dihydro-1H-benzo[d]imidazol-4-yl)acrylamide]
IC50 (human TRPV1 (hTRPV1) [1]): 72.9 nM
hTRPV1 pH (%, 3 μM) (human TRPV1 (hTRPV1) [2]): 57.38%

CC(C)(C)CCc1nc(C(F)(F)F)ccc1/C=C/C(=O)Nc1cccc2[nH]c(=O)[nH]c12 [Example 40, (E)-3-(2-(3,3-dimethylbutyl)-6-(trifluoromethyl)pyridin-3-yl)-N-(2-oxo-2,3-dihydro-1H-benzo[d]imidazol-4-yl)acrylamide]
IC50 (human TRPV1 (hTRPV1) [1]): 178 nM

O=C(/C=C/c1ccc(C(F)(F)F)nc1-c1cccc(F)c1)Nc1cccc2[nH]c(=O)[nH]c12 [Example 30, (E)-3-(2-(3-fluorophenyl)-6-(trifluoromethyl)pyridin-3-yl)-N-(2-oxo-2,3-dihydro-1H-benzo[d]imidazol-4-yl)acrylamide]
IC50 (human TRPV1 (hTRPV1) [1]): 14.2 nM
hTRPV1 pH (%, 3 μM) (human TRPV1 (hTRPV1) [2]): 48.62%

CC(C)c1nc(-c2cccc(Cl)c2)c(/C=C/C(=O)Nc2cccc3[nH]c(=O)[nH]c23)s1 [Example 55, (E)-3-(4-(3-chlorophenyl)-2-isopropylthiazol-5-yl)-N-(2-oxo-2,3-dihydro-1H-benzo[d]imidazol-4-yl)acrylamide]
IC50 (human TRPV1 (hTRPV1) [1]): > 160 nM

O=C(/C=C/c1ccc(C(F)(F)F)nc1SCC1CC1)Nc1cccc2[nH]c(=O)[nH]c12 [Example 28, (E)-3-(2-((cyclopropylmethyl)thio)-6-(trifluoromethyl)pyridin-3-yl)-N-(2-oxo-2,3-dihydro-1H-benzo[d]imidazol-4-yl)acrylamide]
IC50 (human TRPV1 (hTRPV1) [1]): > 100 nM

O=C(CCc1ccc(C(F)(F)F)nc1OCC1CC1)Nc1cccc2[nH]c(=O)[nH]c12 [Example 60, 3-(2-(cyclopropylmethoxy)-6-(trifluoromethyl)pyridin-3-yl)-N-(2-oxo-2,3-dihydro-1H-benzo[d]imidazol-4-yl)propaneamide]
IC50 (human TRPV1 (hTRPV1) [1]): 23.7 nM
hTRPV1 pH (%, 3 μM) (human TRPV1 (hTRPV1) [2]): 67.19%

O=C(/C=C/c1ccc(C(F)(F)F)nc1N1CCOCC1)Nc1cccc2[nH]c(=O)[nH]c12 [Example 5, (E)-3-(2-morpholino-6-(trifluoromethyl)pyridin-3-yl)-N-(2-oxo-2,3-dihydro-1H-benzo[d]imidazol-4-yl)acrylamide]
IC50 (human TRPV1 (hTRPV1) [1]): 16.3 nM
hTRPV1 pH (%, 3 μM) (human TRPV1 (hTRPV1) [2]): 94.79%

CC(C)c1cc(/C=C/C(=O)Nc2cccc3[nH]c(=O)[nH]c23)n(-c2cccc(Cl)c2)n1 [Example 51, (E)-3-(1-(3-chlorophenyl)-3-isopropyl-1H-pyrazol-5-yl)-N-(2-oxo-2,3-dihydro-1H-benzo[d]imidazol-4-yl)acrylamide]
IC50 (human TRPV1 (hTRPV1) [1]): > 160 nM

CC(C)c1cc(C2CC2C(=O)Nc2cccc3[nH]c(=O)[nH]c23)n(-c2cccc(Cl)c2)n1 (centres unmarked) [Example 65, 2-(1-(3-chlorophonyl)-3-isopropyl-1H-pyrazol-5-yl)-N-(2-oxo-2,3-dihydro-1H-benzo[d]imidazol-4-yl)cyclopropane-1-carboxamide]
IC50 (human TRPV1 (hTRPV1) [1]): > 160 nM

CCC1CCN(c2nc(C(F)(F)F)ccc2/C=C/C(=O)Nc2cccc3[nH]c(=O)[nH]c23)CC1 [Example 2, (E)-3-(2-(4-ethylpiperidin-1-yl)-6-(trifluoromethyl)pyridin-3-yl)-N-(2-oxo-2,3-dihydro-1H-benzo[d]imidazol-4-yl)acrylamide]
IC50 (human TRPV1 (hTRPV1) [1]): 28.8 nM
hTRPV1 pH (%, 3 μM) (human TRPV1 (hTRPV1) [2]): 86.72%

O=C(/C=C/c1ccc(C(F)(F)F)nc1OC1CCCC1)Nc1cccc2[nH]c(=O)[nH]c12 [Example 12, (E)-3-(2-(cyclopentyloxy)-6-(trifluoromethyl)pyridin-3-yl)-N-(2-oxo-2,3-dihydro-1H-benzo[d]imidazol-4-yl)acrylamide]
IC50 (human TRPV1 (hTRPV1) [1]): 31.5 nM
hTRPV1 pH (%, 3 μM) (human TRPV1 (hTRPV1) [2]): 81.25%

O=C(/C=C/c1ccc(C(F)F)nc1OCC1CC1)Nc1cccc2[nH]c(=O)[nH]c12 [Example 21, (E)-3-(2-(cyclopropylmethoxy)-6-(difluoromethyl)pyridin-3-yl)-N-(2-oxo-2,3-dihydro-1H-benzo[d]imidazol-4-yl)acrylamide]
IC50 (human TRPV1 (hTRPV1) [1]): 26.1 nM
hTRPV1 pH (%, 3 μM) (human TRPV1 (hTRPV1) [2]): 79.89%

CC1CCN(c2nc(C(F)(F)F)ccc2/C=C/C(=O)Nc2cccc3[nH]c(=O)[nH]c23)CC1 [Example 1, (E)-3-(2-(4-methylpiperidin-1-yl)-6-(trifluoromethyl)pyridin-3-yl)-N-(2-oxo-2,3-dihydro-1H-benzo[d]imidazol-4-yl)acrylamide]
IC50 (human TRPV1 (hTRPV1) [1]): 37 nM
hTRPV1 pH (%, 3 μM) (human TRPV1 (hTRPV1) [2]): 78.62%

O=C(/C=C/c1ccc(C2CC2)nc1OCC1CC1)Nc1cccc2[nH]c(=O)[nH]c12 [Example 18, (E)-3-(6-cyclopropyl-2-(cyclopropylmethoxy)pyridin-3-yl)-N-(2-oxo-2,3-dihydro-1H-benzo[d]imidazol-4-yl)acrylamide]
IC50 (human TRPV1 (hTRPV1) [1]): 117 nM

CC(C)(C)c1nc(-c2cccc(Cl)c2)c(/C=C/C(=O)Nc2cccc3[nH]c(=O)[nH]c23)s1 [Example 58, (E)-3-(2-(tert-butyl)-4-(3-chlorophenyl)thiazol-5-yl)-N-(2-oxo-2,3-dihydro-1H-benzo[d]imidazol-4-yl)acrylamide]
IC50 (human TRPV1 (hTRPV1) [1]): 103 nM

CC(C)c1ccc(/C=C/C(=O)Nc2cccc3[nH]c(=O)[nH]c23)c(OCC2CC2)n1 [Example 19, (E)-3-(2-(cyclopropylmethoxy)-6-isopropylpyridin-3-yl)-N-(2-oxo-2,3-dihydro-1H-benzo[d]imidazol-4-yl)acrylamide]
IC50 (human TRPV1 (hTRPV1) [1]): 410 nM

CC1(c2cc(C3CC3C(=O)Nc3cccc4[nH]c(=O)[nH]c34)n(-c3cccc(Cl)c3)n2)CC1 (centres unmarked) [Example 67, 2-(1-(3-chlorophenyl)-3-(1-methylcyclopropyl)-1H-pyrazol-5-yl)-N-(2-oxo-2,3-dihydro-1H-benzo[d]imidazol-4-yl)cyclopropane-1-carboxamide]
IC50 (human TRPV1 (hTRPV1) [1]): > 160 nM

CC(C)(C)c1ccc(/C=C/C(=O)Nc2cccc3[nH]c(=O)[nH]c23)c(OCC2CC2)n1 [Example 23, (E)-3-(6-(tert-butyl)-2-(cyclopropylmethoxy)pyridin-3-yl)-N-(2-oxo-2,3-dihydro-1H-benzo[d]imidazol-4-yl)acrylamide]
IC50 (human TRPV1 (hTRPV1) [1]): 217 nM

O=C(/C=C/c1ccc(C(F)(F)F)nc1C1CCCC1)Nc1cccc2[nH]c(=O)[nH]c12 [Example 41, (E)-3-(2-cyclopentyl-6-(trifluoromethyl)pyridin-3-yl)-N-(2-oxo-2,3-dihydro-1H-benzo[d]imidazol-4-yl)acrylamide]
IC50 (human TRPV1 (hTRPV1) [1]): 123 nM

CC(F)(F)c1cc(C2CC2C(=O)Nc2cccc3[nH]c(=O)[nH]c23)n(-c2cccc(Cl)c2)n1 (centres unmarked) [Example 64, 2-(1-(3-chlorophenyl)-3-(1,1-difluoroethyl)-1H-pyrazol-5-yl)-N-(2-oxo-2,3-dihydro-1H-benzo[d]imidazol-4-yl)cyclopropane-1-carboxamide]
IC50 (human TRPV1 (hTRPV1) [1]): > 160 nM

CCCCCCOc1nc(C(F)(F)F)ccc1/C=C/C(=O)Nc1cccc2[nH]c(=O)[nH]c12 [Example 9, (E)-3-(2-(hexyloxy)-6-(trifluoromethyl)pyridin-3-yl)-N-(2-oxo-2,3-dihydro-1H-benzo[d]imidazol-4-yl)acrylamide]
IC50 (human TRPV1 (hTRPV1) [1]): > 50 nM

CC(C)(C)COc1nc(C(F)(F)F)ccc1/C=C/C(=O)Nc1cccc2[nH]c(=O)[nH]c12 [Example 15, (E)-3-(2-(neopentyloxy)-6-(trifluoromethyl)pyridin-3-yl)-N-(2-oxo-2,3-dihydro-1H-benzo[d]imidazol-4-yl)acrylamide]
IC50 (human TRPV1 (hTRPV1) [1]): 202 nM

CC1(c2cc(/C=C/C(=O)Nc3cccc4[nH]c(=O)[nH]c34)n(-c3cccc(Cl)c3)n2)CC1 [Example 52, (E)-3-(1-(3-chlorophenyl)-3-(1-methylcyclopropyl)-1H-pyrazol-5-yl)-N-(2-oxo-2,3-dihydro-1H-benzo[d]imidazol-4-yl)acrylamide]
IC50 (human TRPV1 (hTRPV1) [1]): > 160 nM

O=C(/C=C/c1ccc(C(F)(F)F)nc1SC1CCCCC1)Nc1cccc2[nH]c(=O)[nH]c12 [Example 29, (E)-3-(2-(cyclohexylthio)-6-(trifluoromethyl)pyridin-3-yl)-N-(2-oxo-2,3-dihydro-1H-benzo[d]imidazol-4-yl)acrylamide]
IC50 (human TRPV1 (hTRPV1) [1]): > 100 nM

CC(C)(C)c1cc(C2CC2C(=O)Nc2cccc3[nH]c(=O)[nH]c23)n(-c2cccc(Cl)c2)n1 (centres unmarked) [Example 68, 2-(3-(tert-butyl)-1-(3-chlorophenyl)-1H-pyrazol-5-yl)-N-(2-oxo-2,3-dihydro-1H-benzo[d]imidazol-4-yl)cyclopropane-1-carboxamide]
IC50 (human TRPV1 (hTRPV1) [1]): 139 nM
